What all share (test): biochemical
What all share (parameters): KINOMEscan active site-directed competition binding assay (DiscoveRx), 456 kinases, per cent of control at 300 nM
What all share (conditions): read-out: Percent of Control (%)

One assay concerns the target AXL (Homo sapiens, UniProt P30530). The method, boiled down: (§1)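 At 300 nmol/L, compounds were assessed for kinase binding in an active site-directed competition format covering 456 kinases.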
The target of the next assay is BRSK2 (Homo sapiens, UniProt Q8IWQ3). Summed up:
as §1

The target in another assay is T1, CDC2L5 (Homo sapiens, UniProt Q14004).
T1 construct: gene CDK13
Summed up: as §1

A further assay concerns the target EPHA8 (Homo sapiens, UniProt P29322). The method, boiled down:
as §1

For the next assay, the target named is FER (Homo sapiens, UniProt P16591). The method, boiled down:
as §1

Another assay has as its target FLT3(D835H) (Homo sapiens, UniProt P36888, D835H). Summed up:
as §1

Assay [1] addresses T2, JAK1(JH1domain-catalytic) (Homo sapiens, UniProt P23458).
T2 construct: JH1domain-catalytic
Summed up:
as §1

For the next assay, the target named is LATS2 (Homo sapiens, UniProt Q9NRM7). Summed up: as §1
Sequence of LATS2 (Q9NRM7 whole entry): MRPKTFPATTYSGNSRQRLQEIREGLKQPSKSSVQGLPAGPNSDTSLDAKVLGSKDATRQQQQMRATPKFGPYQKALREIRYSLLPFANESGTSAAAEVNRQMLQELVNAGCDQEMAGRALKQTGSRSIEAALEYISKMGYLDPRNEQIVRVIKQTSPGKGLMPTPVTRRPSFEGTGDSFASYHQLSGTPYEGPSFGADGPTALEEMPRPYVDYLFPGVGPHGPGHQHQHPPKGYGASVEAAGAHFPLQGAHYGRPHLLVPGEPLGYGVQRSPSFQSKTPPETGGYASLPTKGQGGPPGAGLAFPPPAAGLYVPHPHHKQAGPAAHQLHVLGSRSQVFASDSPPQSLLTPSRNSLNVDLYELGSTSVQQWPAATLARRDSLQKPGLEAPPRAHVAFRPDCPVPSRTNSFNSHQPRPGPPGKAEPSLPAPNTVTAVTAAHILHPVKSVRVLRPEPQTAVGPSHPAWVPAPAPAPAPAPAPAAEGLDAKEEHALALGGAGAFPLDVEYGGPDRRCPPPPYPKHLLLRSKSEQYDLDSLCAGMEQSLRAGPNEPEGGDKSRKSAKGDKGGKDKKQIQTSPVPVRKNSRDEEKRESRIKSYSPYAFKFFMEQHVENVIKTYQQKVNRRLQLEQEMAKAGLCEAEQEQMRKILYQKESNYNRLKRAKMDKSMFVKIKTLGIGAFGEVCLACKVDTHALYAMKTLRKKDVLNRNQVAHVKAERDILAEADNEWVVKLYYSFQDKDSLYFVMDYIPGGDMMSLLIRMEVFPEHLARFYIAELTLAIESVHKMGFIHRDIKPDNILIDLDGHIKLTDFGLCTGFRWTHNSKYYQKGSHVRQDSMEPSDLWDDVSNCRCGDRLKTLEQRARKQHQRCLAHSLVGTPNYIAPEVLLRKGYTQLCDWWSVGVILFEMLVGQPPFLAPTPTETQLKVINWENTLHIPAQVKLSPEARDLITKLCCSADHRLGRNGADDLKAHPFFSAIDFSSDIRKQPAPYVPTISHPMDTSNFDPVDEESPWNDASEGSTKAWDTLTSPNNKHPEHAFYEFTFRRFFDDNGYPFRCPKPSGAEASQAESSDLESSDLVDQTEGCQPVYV
The next assay addresses MARK4 (Homo sapiens, UniProt Q96L34). Summed up:
as §1

For another assay, the target named is MUSK (Homo sapiens, UniProt O15146). Summed up: as §1
The target of a further assay is T3, NDR2 (Homo sapiens, UniProt Q9Y2H1).
T3 construct: gene STK38L
The method, boiled down:
as §1

Another assay deals with PDPK1 (Homo sapiens, UniProt O15530). The method, boiled down: as §1
For the next assay, the target named is PIK3CA(C420R) (Homo sapiens, UniProt P42336, C420R). The method, boiled down: as §1
Sequence of PIK3CA(C420R) (P42336 whole entry C420R): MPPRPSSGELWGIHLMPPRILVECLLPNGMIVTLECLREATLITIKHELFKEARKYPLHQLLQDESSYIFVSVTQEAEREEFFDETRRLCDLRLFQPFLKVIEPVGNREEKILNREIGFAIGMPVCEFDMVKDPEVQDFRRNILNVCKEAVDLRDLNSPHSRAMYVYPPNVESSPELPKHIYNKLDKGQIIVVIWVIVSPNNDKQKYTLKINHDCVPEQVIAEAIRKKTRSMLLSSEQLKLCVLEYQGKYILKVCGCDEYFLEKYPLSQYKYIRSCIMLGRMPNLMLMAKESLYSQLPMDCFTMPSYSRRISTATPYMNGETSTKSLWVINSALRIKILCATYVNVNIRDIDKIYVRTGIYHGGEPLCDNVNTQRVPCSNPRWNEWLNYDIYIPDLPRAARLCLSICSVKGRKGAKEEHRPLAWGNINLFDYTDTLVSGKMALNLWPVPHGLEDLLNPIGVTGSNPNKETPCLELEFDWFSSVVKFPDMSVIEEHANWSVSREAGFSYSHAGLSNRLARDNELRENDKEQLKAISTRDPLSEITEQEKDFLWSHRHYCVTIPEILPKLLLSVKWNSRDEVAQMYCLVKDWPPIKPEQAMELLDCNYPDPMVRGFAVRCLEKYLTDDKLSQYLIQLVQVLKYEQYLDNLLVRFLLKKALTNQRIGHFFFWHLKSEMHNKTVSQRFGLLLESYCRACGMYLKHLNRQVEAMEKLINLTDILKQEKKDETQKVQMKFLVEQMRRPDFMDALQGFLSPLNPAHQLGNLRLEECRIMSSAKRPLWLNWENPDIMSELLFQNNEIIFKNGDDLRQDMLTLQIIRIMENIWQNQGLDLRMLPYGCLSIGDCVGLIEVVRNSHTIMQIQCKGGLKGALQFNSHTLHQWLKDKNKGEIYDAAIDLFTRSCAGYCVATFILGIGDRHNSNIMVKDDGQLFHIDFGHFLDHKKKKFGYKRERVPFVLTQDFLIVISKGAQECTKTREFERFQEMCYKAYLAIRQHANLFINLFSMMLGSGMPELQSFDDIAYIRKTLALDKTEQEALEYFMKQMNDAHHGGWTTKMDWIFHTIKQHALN
In a further assay the target is PIM2 (Homo sapiens, UniProt Q9P1W9). Summed up: as §1
Another assay has as its target PKNB(M.tuberculosis) (Mycobacterium tuberculosis, UniProt P9WI81). The method, boiled down:
as §1

Another assay has as its target PLK4 (Homo sapiens, UniProt O00444). The method, boiled down:
as §1

The target in assay [2] is T4, RSK1(Kin.Dom.1-N-terminal) (Homo sapiens, UniProt Q15418).
T4 construct: gene RPS6KA1; Kin.Dom.1-N-terminal
The method, boiled down:
as §1

A further assay deals with SGK3 (Homo sapiens, UniProt Q96BR1). The method, boiled down:
as §1

Another assay has as its target SLK (Homo sapiens, UniProt Q9H2G2). The method, boiled down: as §1
The target of another assay is TAOK2 (Homo sapiens, UniProt Q9UL54). Summed up:
as §1

In another assay the target is TESK1 (Homo sapiens, UniProt Q15569). Summed up: as §1
Another assay has as its target T5, YANK3 (Homo sapiens, UniProt Q86UX6).
T5 construct: gene STK32C
Summed up: as §1

The structures appear in SMILES notation. Where two headings read alike, the source gives them in different places.

Here are results for 2 compounds from publication PMC5862592, “CDK8/19 inhibition induces premature G1/S transition and ATR-dependent cell death in prostate cancer cells” (Oncotarget, 2018).

Sequence of MARK4 (Q96L34 whole entry): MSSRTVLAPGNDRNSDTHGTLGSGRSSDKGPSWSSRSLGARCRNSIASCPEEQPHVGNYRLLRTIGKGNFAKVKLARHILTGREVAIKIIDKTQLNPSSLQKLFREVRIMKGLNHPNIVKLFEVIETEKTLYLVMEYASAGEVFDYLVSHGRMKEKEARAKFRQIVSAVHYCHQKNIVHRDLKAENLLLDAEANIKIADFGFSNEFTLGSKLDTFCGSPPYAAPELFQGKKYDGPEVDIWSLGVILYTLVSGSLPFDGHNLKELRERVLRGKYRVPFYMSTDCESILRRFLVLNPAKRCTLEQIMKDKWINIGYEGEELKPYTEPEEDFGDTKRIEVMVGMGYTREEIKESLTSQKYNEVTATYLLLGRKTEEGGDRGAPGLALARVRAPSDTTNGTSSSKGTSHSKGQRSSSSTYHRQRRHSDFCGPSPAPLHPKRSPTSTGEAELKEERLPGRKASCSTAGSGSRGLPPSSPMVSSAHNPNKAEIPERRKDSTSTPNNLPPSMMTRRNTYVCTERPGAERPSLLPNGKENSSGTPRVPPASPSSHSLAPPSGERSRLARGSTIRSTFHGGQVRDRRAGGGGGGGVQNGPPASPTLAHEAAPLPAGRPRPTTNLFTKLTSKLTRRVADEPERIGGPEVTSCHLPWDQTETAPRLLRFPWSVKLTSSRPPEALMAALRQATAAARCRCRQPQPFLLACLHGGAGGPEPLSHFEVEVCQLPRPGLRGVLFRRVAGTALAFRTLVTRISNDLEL
Sequence of PKNB(M.tuberculosis) (P9WI81 whole entry): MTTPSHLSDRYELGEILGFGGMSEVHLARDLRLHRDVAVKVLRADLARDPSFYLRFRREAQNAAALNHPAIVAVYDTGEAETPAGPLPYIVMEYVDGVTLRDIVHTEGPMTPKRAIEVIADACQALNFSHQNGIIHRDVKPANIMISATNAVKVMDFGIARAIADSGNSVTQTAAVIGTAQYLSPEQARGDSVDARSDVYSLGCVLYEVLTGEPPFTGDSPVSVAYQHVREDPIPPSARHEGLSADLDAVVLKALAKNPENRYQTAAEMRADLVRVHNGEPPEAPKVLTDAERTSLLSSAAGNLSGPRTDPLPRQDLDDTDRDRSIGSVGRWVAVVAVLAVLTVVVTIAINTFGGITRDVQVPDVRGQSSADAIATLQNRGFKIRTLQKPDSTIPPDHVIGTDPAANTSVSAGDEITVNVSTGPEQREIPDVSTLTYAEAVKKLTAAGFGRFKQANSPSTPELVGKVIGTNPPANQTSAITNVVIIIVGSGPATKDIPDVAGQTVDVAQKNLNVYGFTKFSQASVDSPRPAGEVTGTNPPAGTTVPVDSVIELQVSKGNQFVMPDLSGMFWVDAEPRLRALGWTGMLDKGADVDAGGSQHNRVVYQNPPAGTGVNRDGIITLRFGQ
T5 sequence (Q86UX6 whole entry): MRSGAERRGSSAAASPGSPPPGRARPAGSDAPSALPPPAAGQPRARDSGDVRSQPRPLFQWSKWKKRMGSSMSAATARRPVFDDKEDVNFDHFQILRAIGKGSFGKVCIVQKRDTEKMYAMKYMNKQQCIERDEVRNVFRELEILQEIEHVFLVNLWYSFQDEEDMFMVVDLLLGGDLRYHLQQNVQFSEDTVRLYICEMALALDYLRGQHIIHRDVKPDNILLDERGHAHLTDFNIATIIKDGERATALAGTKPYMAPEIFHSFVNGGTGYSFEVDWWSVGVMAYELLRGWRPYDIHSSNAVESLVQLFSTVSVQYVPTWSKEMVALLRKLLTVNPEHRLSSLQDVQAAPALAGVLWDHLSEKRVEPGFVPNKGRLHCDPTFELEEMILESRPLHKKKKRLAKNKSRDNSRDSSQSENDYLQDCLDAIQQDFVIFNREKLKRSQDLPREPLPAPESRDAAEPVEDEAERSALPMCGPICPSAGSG
Sequence of FER (P16591 whole entry): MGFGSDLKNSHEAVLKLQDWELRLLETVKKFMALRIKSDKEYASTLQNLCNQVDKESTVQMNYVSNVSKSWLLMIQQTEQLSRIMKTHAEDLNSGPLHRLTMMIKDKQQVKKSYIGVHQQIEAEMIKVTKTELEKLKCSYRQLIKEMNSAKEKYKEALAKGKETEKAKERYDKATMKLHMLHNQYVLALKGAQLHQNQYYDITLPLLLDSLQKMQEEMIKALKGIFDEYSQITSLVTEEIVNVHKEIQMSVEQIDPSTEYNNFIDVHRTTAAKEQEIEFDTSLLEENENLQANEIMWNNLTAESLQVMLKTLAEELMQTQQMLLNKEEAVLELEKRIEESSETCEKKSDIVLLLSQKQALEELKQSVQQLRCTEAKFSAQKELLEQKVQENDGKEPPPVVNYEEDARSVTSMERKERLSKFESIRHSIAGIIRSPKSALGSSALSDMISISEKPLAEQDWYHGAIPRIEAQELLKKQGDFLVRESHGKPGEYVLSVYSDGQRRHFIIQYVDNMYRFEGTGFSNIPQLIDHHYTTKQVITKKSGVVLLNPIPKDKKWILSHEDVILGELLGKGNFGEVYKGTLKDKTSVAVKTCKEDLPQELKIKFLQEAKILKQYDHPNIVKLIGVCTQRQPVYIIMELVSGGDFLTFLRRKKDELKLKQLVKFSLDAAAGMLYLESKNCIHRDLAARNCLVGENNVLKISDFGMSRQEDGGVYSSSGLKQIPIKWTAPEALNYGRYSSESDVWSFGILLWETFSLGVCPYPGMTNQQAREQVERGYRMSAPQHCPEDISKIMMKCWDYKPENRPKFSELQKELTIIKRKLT

Regarding `O=C(/C=C/c1cnccc1-c1ccc(F)cc1)Nc1ccc(CCc2nnco2)cc1` [T-418, (2E)-3-(4-(4-fluorophenyl)pyridin-3-yl)-N-(4-(2-(1,3,4-oxadiazol-2-yl)ethyl)phenyl)acrylamide], the remaining binding at 0.3 µM was found to be 73% at AXL (sheet T-418); 100% at BRSK2 (sheet T-418); 87% at CDC2L5 (sheet T-418); 88% on EPHA8 (sheet T-418); 98% on FER (sheet T-418); 100% at FLT3(D835H) (sheet T-418). Also, the remaining binding at 0.3 µM came to 69% in [1] (sheet T-418); 100% on LATS2 (sheet T-418); 98% at MARK4 (sheet T-418); 100% on MUSK (sheet T-418); 100% at NDR2 (sheet T-418); 64% at PDPK1 (sheet T-418). For the same compound, the remaining binding at 0.3 µM on PIK3CA(C420R) (sheet T-418) was determined as 86%; on PIM2 (sheet T-418), 89%; at PKNB(M.tuberculosis) (sheet T-418) it was 84%; at PLK4 (sheet T-418) it was 78%; in [2] (sheet T-418) it was 78%; at SGK3 (sheet T-418) it was 62%. The remaining binding at 0.3 µM at SLK (sheet T-418) is 100%; at TAOK2 (sheet T-418) it was 100%; at TESK1 (sheet T-418), 99%; at YANK3 (sheet T-418), 100%.

As to `Cc1ncccc1Oc1sc(C(N)=O)c2c1-c1c(cnn1C)CC2` [T-474, 1-methyl-8-((2-methylpyridin-3-yl)oxy)-4,5-dihydro-1H-thieno[3,4-g]indazole-6-carboxamide], the remaining binding at 0.3 µM on AXL was 83%; at BRSK2 it was 87%; at CDC2L5, 86%; at EPHA8 it was 91%; at FER it was 90%; on FLT3(D835H), 58%. Moreover, the remaining binding at 0.3 µM worked out at 73% in [1]; 100% at LATS2; 83% on MARK4; 100% on MUSK; 100% at NDR2; 70% at PDPK1. Moreover, the remaining binding at 0.3 µM on PIK3CA(C420R) stood at 95%; on PIM2 it was 80%; on PKNB(M.tuberculosis) it was 75%; on PLK4 it was 86%; in assay [2] it was 95%; at SGK3, 61%. Further, the remaining binding at 0.3 µM on SLK, on TAOK2, at TESK1 and at YANK3 was 100% each time.
